Experimental findings from patent US10717716B2, “1,3,4-oxadiazole derivative compounds as histone deacetylase 6 inhibitor, and the pharmaceutical composition comprising the same” (Chong Kun Dang Pharmaceutical Corp., priority 2015, dated 2020) are described below.

This experiment concerns the target T1, human recombinant HDAC6 (Homo sapiens, UniProt Q9UBN7).
T1 construct: purchased Calbiochem 382180
T1 sequence (Q9UBN7 1-1215): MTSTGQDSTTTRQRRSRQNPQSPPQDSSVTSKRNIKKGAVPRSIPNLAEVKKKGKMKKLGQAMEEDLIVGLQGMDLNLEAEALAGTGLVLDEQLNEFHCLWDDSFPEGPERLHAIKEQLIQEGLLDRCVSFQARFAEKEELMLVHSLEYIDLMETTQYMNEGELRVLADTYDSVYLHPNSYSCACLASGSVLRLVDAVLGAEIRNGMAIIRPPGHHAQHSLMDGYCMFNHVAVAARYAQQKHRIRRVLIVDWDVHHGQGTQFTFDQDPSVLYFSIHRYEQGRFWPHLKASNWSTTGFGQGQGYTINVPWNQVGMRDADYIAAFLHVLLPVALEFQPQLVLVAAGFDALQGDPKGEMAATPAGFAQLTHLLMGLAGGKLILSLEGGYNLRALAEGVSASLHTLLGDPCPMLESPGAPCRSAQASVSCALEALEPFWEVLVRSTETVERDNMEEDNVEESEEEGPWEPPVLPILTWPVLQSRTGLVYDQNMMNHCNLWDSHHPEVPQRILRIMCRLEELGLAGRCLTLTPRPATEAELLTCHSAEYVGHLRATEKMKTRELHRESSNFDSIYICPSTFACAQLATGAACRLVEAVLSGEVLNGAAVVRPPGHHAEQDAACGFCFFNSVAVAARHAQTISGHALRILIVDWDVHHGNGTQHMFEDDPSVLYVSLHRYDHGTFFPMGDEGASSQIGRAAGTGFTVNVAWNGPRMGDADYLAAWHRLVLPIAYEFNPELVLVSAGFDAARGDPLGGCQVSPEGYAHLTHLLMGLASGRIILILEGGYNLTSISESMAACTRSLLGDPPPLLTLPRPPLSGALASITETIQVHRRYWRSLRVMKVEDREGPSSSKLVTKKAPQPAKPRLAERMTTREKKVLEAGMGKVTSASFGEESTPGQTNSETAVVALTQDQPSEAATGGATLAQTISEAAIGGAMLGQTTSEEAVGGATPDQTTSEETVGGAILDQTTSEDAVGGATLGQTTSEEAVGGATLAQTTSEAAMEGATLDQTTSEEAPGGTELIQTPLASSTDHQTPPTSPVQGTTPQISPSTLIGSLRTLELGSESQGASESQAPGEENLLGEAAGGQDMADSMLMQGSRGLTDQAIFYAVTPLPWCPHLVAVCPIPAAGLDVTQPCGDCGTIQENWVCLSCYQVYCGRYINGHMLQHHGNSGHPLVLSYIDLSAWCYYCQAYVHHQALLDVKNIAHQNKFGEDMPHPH
Kind of experiment: HDAC6 enzyme activity inhibition assay (HDAC Fluorimetric Drug Discovery Kit). The conditions noted are these: for HDAC6 selectivity (fold): HDAC6 over HDAC1; for IC50: human recombinant HDAC6, same protocol as HDAC1, read-out: HDAC6. It counts as biochemical. A digest of the protocol:
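Fluorimetric deacetylase assay: 5-fold serial compound dilutions, 0.3 μg recombinant human enzyme (HDAC1 or HDAC6, same protocol), 10 μM Fluor de Lys-SIRT1 substrate, 60 min at 30 °C. Signal developed 30 min, measured at 360/460 nm; IC50 values derived.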

Each structure is given as a SMILES string.

For the compound `CC(C)N(Cc1ccc(-c2nnc(C(F)(F)F)o2)cc1)C(=O)N1CCS(=O)(=O)CC1` [Compound 21397, N-isopropyl-N-(4-(5-(trifluoromethyl)-1,3,4-oxadiazol-2-yl)benzyl)thiomorpholine-4-carboxamide 1,1-dioxide], the “HDAC6 selectivity (fold)” value is reported as 11 fold and the IC50 came to 882 nM.

Consider `CN(Cc1ccc(-c2nnc(C(F)(F)F)o2)cc1)C(=O)N1CCOCC1` [Compound 21398, N-methyl-N-(4-(5-(trifluoromethyl)-1,3,4-oxadiazol-2-yl)benzyl)morpholine-4-carboxamide], for which the “HDAC6 selectivity (fold)” value was found to be 12 fold and the IC50 was found to be 849 nM.

In the case of `CCN(Cc1ccc(-c2nnc(C(F)(F)F)o2)cc1)C(=O)N1CCOCC1` [Compound 21399, N-ethyl-N-(4-(5-(trifluoromethyl)-1,3,4-oxadiazol-2-yl)benzyl)morpholine-4-carboxamide], the “HDAC6 selectivity (fold)” value is 13 fold and the IC50 is 780 nM.

For the compound `CCCN(Cc1ccc(-c2nnc(C(F)(F)F)o2)cc1)C(=O)N1CCOCC1` [Compound 21400, N-propyl-N-(4-(5-(trifluoromethyl)-1,3,4-oxadiazol-2-yl)benzyl)morpholine-4-carboxamide], the “HDAC6 selectivity (fold)” value is 17 fold and the IC50 is 582 nM.

In the case of `CCCCN(Cc1ccc(-c2nnc(C(F)(F)F)o2)cc1)C(=O)N1CCOCC1` [Compound 21401, N-butyl-N-(4-(5-(trifluoromethyl)-1,3,4-oxadiazol-2-yl)benzyl)morpholine-4-carboxamide], the “HDAC6 selectivity (fold)” value amounted to 20 fold and the IC50 amounted to 497 nM.

As to `CCCN(C)C(=O)N(Cc1ccc(-c2nnc(C(F)(F)F)o2)cc1)c1ccccc1` [Compound 21402, 1-Methyl-3-phenyl-1-propyl-3-(4-(5-(trifluoromethyl)-1,3,4-oxadiazol-2-yl)benzyl)urea], the “HDAC6 selectivity (fold)” value was determined as 45 fold and the IC50 came out at 222 nM.

For the compound `O=C(N1CCN(c2ccccn2)CC1)N(Cc1ccc(-c2nnc(C(F)(F)F)o2)cc1)c1ccccc1` [Compound 21403, N-phenyl-4-(pyridin-2-yl)-N-(4-(5-(trifluoromethyl)-1,3,4-oxadiazol-2-yl)benzyl)piperazine-1-carboxamide], the “HDAC6 selectivity (fold)” value is 30 fold and the IC50 was 334 nM.

For `CCOC(=O)CN1[C@H](C)CN(C(=O)N(Cc2ccc(-c3nnc(C(F)(F)F)o3)cc2)c2ccccc2)C[C@@H]1C` [Compound 21404, Ethyl 2-((2S,6R)-2,6-dimethyl-4-(phenyl(4-(5-(trifluoromethyl)-1,3,4-oxadiazol-2-yl)benzyl)carbamoyl)piperazin-1-yl)acetate], the “HDAC6 selectivity (fold)” value was 40 fold and the IC50 is 247 nM.

For the compound `O=C(N1CCOCC1)N(Cc1ccc(-c2nnc(C(F)(F)F)o2)cc1)c1cccc(C(F)(F)F)c1` [Compound 21405, N-(4-(5-(trifluoromethyl)-1,3,4-oxadiazol-2-yl)benzyl)-N-(3-(trifluoromethyl)phenyl)morpholine-4-carboxamide], the “HDAC6 selectivity (fold)” value was 28 fold and the IC50 worked out at 354 nM.

As to `O=C(N1CCOCC1)N(Cc1ccc(-c2nnc(C(F)(F)F)o2)cc1)c1ccc(C(F)(F)F)cc1` [Compound 21406, N-(4-(5-(trifluoromethyl)-1,3,4-oxadiazol-2-yl)benzyl)-N-(4-(trifluoromethyl)phenyl)morpholine-4-carboxamide], the “HDAC6 selectivity (fold)” value is recorded as 16 fold and the IC50 came to 619 nM.

For `O=C(N1CCOCC1)N(Cc1ccc(-c2nnc(C(F)(F)F)o2)cc1)c1cccc(F)c1` [Compound 21407, N-(3-fluorophenyl)-N-(4-(5-(trifluoromethyl)-1,3,4-oxadiazol-2-yl)benzyl)morpholine-4-carboxamide], the “HDAC6 selectivity (fold)” value worked out at 71 fold and the IC50 came out at 140 nM.

Consider `O=C(N1CCOCC1)N(Cc1ccc(-c2nnc(C(F)(F)F)o2)cc1)c1cccc(C(F)(F)F)n1` [Compound 21408, N-(4-(5-(trifluoromethyl)-1,3,4-oxadiazol-2-yl)benzyl)-N-(6-(trifluoromethyl)pyridin-2-yl)morpholine-4-carboxamide], for which the “HDAC6 selectivity (fold)” value was determined as 14 fold and the IC50 was 706 nM.

In the case of `O=C(N1CCS(=O)(=O)CC1)N(Cc1ccc(-c2nnc(C(F)(F)F)o2)cc1)c1ccccn1` [Compound 21409, N-(pyridin-2-yl)-N-(4-(5-(trifluoromethyl)-1,3,4-oxadiazol-2-yl)benzyl)thiomorpholine-4-carboxamide 1,1-dioxide], the “HDAC6 selectivity (fold)” value came to 33 fold and the IC50 was found to be 304 nM.

Regarding `O=C(N1CCS(=O)(=O)CC1)N(Cc1ccc(-c2nnc(C(F)(F)F)o2)cc1Cl)c1ccccc1` [Compound 21410, N-(2-chloro-4-(5-(trifluoromethyl)-1,3,4-oxadiazol-2-yl)benzyl)-N-phenylthiomorpholine-4-carboxamide 1,1-dioxide], the “HDAC6 selectivity (fold)” value was determined as 12 fold and the IC50 was determined as 840 nM.

Regarding `O=C(N1CCS(=O)(=O)CC1)N(Cc1ccc(-c2nnc(C(F)F)o2)cc1Cl)c1ccccc1` [Compound 21411, N-(2-chloro-4-(5-(difluoromethyl)-1,3,4-oxadiazol-2-yl)benzyl)-N-phenylthiomorpholine-4-carboxamide 1,1-dioxide], the “HDAC6 selectivity (fold)” value stood at 5 fold and the IC50 was 2150 nM.

On to `O=C(N1CCS(=O)(=O)CC1)N(Cc1ccc(-c2nnc(C(F)(F)F)o2)cc1)c1ccc(C(F)(F)F)cc1` [Compound 21412, N-(4-(5-(trifluoromethyl)-1,3,4-oxadiazol-2-yl)benzyl)-N-(4-(trifluoromethyl)phenyl)thiomorpholine-4-carboxamide 1,1-dioxide], for which the “HDAC6 selectivity (fold)” value came out at 21 fold and the IC50 came out at 470 nM.

Take `O=C(N1CCS(=O)(=O)CC1)N(Cc1ccc(-c2nnc(C(F)(F)F)o2)cc1)c1ccc(Br)cc1` [Compound 21413, N-(4-bromophenyl)-N-(4-(5-(trifluoromethyl)-1,3,4-oxadiazol-2-yl)benzyl)thiomorpholine-4-carboxamide 1,1-dioxide]: the “HDAC6 selectivity (fold)” value amounted to 41 fold and the IC50 came out at 246 nM.

Take `O=C(N1CCOCC1)N(Cc1ccc(-c2nnc(C(F)(F)F)o2)cc1)c1ccc(F)cc1F` [Compound 21414, N-(2,4-difluorophenyl)-N-(4-(5-(trifluoromethyl)-1,3,4-oxadiazol-2-yl)benzyl)morpholine-4-carboxamide]: the “HDAC6 selectivity (fold)” value is listed as 79 fold and the IC50 was 126 nM.

`Cc1ccc(N(Cc2ccc(-c3nnc(C(F)(F)F)o3)cc2)C(=O)N2CCOCC2)c(F)c1` [Compound 21415, N-(2-fluoro-4-methylphenyl)-N-(4-(5-(trifluoromethyl)-1,3,4-oxadiazol-2-yl)benzyl)morpholine-4-carboxamide]: the “HDAC6 selectivity (fold)” value was 33 fold and the IC50 was found to be 299 nM.

In the case of `CC(C)(C)OC(=O)N1CC2(CCN(C(=O)N(Cc3ccc(-c4nnc(C(F)(F)F)o4)cc3)c3ccccc3)CC2)C1` [Compound 21416, Ten-butyl 7-(phenyl(4-(5-(trifluoromethyl)-1,3,4-oxadiazol-2-yl)benzyl)carbamoyl)-2,7-diazaspiro[3.5]nonane-2-carboxylate], the “HDAC6 selectivity (fold)” value turned out to be 6 fold and the IC50 came to 1590 nM.
